Data reported in patent US4684650A, “Antihypertensive fluorophenylindanyl imidazolidinoneethylpiperazines” (priority 1984, dated 1987).
Where two headings read alike, the source gives them in different places.

Legend:
[1] = tested on: methylphenidate induced stereotypies; assay: Methylphenidate Antagonism; assay type: in vivo, mice; settings: Mus musculus, ip, read-out: MePh antg. ED50, i.p., mice, 2 hours before methylphenidate 60 mg/kg s.c.
Protocol: The experiments were made as described by Pedersen and Christensen (1972) Acta Pharmacol. et Toxicol. 31, 488-496.--Briefly, test compounds or saline were injected i.p. 2 hours before methylphenidate, 60 mg/kg s.c. 3 pairs of mice were used for each dose level. After methylphenidate injection the mice were placed in observation cages for one hour. The cages were placed on corrugated paper, the corrugation facing upwards.

[2] = tested on: Quipazine-induced head shakes; assay: Quipazine-induced head shakes; assay type: in vivo; settings: Rattus norvegicus, sc, rats, 2 hours before quipazine 5 mg/kg s.c.; read-out: Quipazine antg. (Q) ED50
Protocol: The rats were pretreated subcutaneously with test compound or saline 2 hours before injection of quipazine (5 mg/kg s.c.). The rats were then placed individually in perspex observation cages (12×25 cm), and in standard experiments the number of head shakes (involving the head and sometimes part of the body) were counted for 10 min., 30-40 min. after quipazine, where the effect was maximal. The number of head shakes in each dose group were expressed in percent of those induced in the control group, and ED50 values were calculated by log-probit analysis of results from at least 3 doses.
(§1) Each group consisted of 4-12 rats.

[3] = tested on: spontaneous hypertensive rats (SHR); assay: Antihypertensive effect in spontaneous hypertensive rats (SHR); assay type: in vivo; settings: for change in vivo at 5 mg/kg / ED10: Rattus norvegicus, ip; for change in vivo at 5 mg/kg: 1 h
Protocol: Antihypertensive effect in spontaneous hypertensive rats (SHR)
The femoral artery of male SHR is cannulated in anaestesia for blood pressure recordings. After a stabilization period of 11/2 h after discontinuation of the anaesthesia initial blood pressure curves are recorded and the systolic (SAP)/diastolic (DAP) pressure determined (-20, -10, 0, min. p.i.) Test substance is injected i.p. and the pressure curve recorded for one hour. The change in SAP/DAP is calculated in percent at mean initial values at different times (10, 20, 30, 40, 50 and 60 minutes after injection). At least two SHR are used per dose level. The maximum change is used for estimation of the drug effect.

[4] = tested on: 5-HT pressor responses; assay: Antagonism to 5-HT pressor responses in pithed rats; assay type: in vivo; settings: for change in vivo at 0.02 mg/kg / ED50: Rattus norvegicus, iv; for ED50: read-out: Effects on pressor response of 5-HT, ED50, pithed rats, jugular vein
Protocol: (§2) The rat is anaesthetized with ether, tracheotomized, artificial respired and pithed. The knitting-needle is introduced through the right orbita into the cranial cavity and passed through foramen magnum into the spinal canal as far as possible. The spinal cord is destroyed by turning the needle. After vagotomi both carotides are ligated and a catheter placed in the right one for pressure recording. The rat is adrenalectomized. […] The initial and post medication mean pressor effect is calculated, and the mean pressor effect is calculated as % of the initial value. Two to five preparations are employed for each dose level. The ED50 is determined.

[5] = tested on: phenylephrine pressor responses; assay: Antagonism to phenylephrine pressor responses in pithed rats; assay type: in vivo; settings: for change in vivo at […] / ED50: Rattus norvegicus, iv; for change in vivo at […]: read-out: Effects on pressor response of Phenylephrine, % eff. of […], pithed rats, […], jugular vein, read-out: Effects on pressor response of Phenylephrine, % eff. of 0.31 mg/kg; for ED50: read-out: Effects on pressor response of Phenylephrine, ED50; for Phenylephr. antg./5-HT antg. (ratio): ratio of phenylephrine ED50 to 5-HT ED50
Protocol: as §2

[6] = tested on: 1-5-HTP-induced head shakes; assay: 1-5-HTP-induced head shakes; assay type: in vivo; settings: rats, 1-5-HTP 75 mg/kg i.p. after citalopram; for 1-5-HTP-antg. ED50: s.c.
Protocol: The rats were pretreated subcutaneously with test compound or saline simultaneously with or 90 min before injection of citalopram (10 mg/kg s.c.).
as §1

[7] = target: T1, 5-HT2 receptors (Rattus norvegicus, UniProt P14842); assay: 3H-spiroperidol binding to 5-HT2 receptors; settings: rat whole cortex, 0.5 nM 3H-spiroperidol, 0.3 μM sulpiride; read-out: 3H-SPI binding 5-HT2 IC50
T1 construct: Rat whole cortex was homogenized by an Ultra Turrax homogenizer; from tissue; host or cells: rat whole cerebral cortex, crude washed membranes
Protocol: ^3 H-spiroperidol binding to 5-HT2 receptors.
Rat whole cortex was homogenized by an Ultra Turrax homogenizer in 100 vol. of 50 mM Tris buffer pH 7.7. The homogenate was centrifuged at 20,000 g for 10 minutes at 4° C. The pellet was rehomogenized in another volume of buffer and centrifuged as mentioned above. The final pellet was rehomogenized in 50 mM Tris buffer pH 7.7 containing 120 mM NaCl, 5 mM KCl, 2 mM CaCl2 and 1 mM MgCl2 (ion mix) in a volume corresponding to 12.5 mg original tissue per ml.
Test drugs were dissolved in water; ^3 H-spiroperidol (NEN, 28-30 Ci/mmol) was diluted in 3 μM sulpiride, and 800 μl membrane suspension were added. Final concentration of ligand and sulpiride were 0.5 nM and 0.3 μM, respectively. The samples were incubated at 37° C. for 10 min. The samples were then filtered under vacuum through Whatman GF/B glass-fiber filters. The tubes were then rinsed with 5 ml incubation buffer, which was poured on the filters. The filters were finally washed twice with 5 ml buffer and placed in counting vials. After addition of 5 ml scintillation fluid (Lumagel) radioactivity was estimated by liquid scintillation counting. Non-specific binding was obtained by adding Mianserin (1 μM) to separate samples. Each drug was tested at least twice at 5 concentrations in triplicate. IC50-values were determined from log concentration-response curves.--The presence of sulpiride excluded binding to dopamine D-2 receptors.

[8] = 5 mg/kg ip, diastolic pressure (DAP), max change within one hour, read-out: Antihypertensive eff. SHR, max eff. in % of 5 mg/kg ip, DAP
[9] = 5 mg/kg ip, systolic pressure (SAP), max change within one hour, read-out: Antihypertensive eff. SHR, max eff. in % of 5 mg/kg ip, SAP
[10] = pithed rats, 0.02 mg/kg, jugular vein, read-out: Effects on pressor response of 5-HT, % eff. of 0.02 mg/kg
[11] = 5 mg/kg ip, diastolic pressure (DAP), max change within one hour
[12] = 5 mg/kg ip, systolic pressure (SAP), max change within one hour
[13] = pithed rats, 0.02 mg/kg, jugular vein
[14] = read-out: Antihypertensive eff. SHR, ED10 DAP
[15] = read-out: Antihypertensive eff. SHR, ED10 SAP
[16] = read-out: Antihypertensive eff. SHR, max eff. in % of 5 mg/kg ip, DAP, 5 mg/kg ip, diastolic pressure (DAP), max change within one hour
[17] = read-out: Antihypertensive eff. SHR, max eff. in % of 5 mg/kg ip, SAP, 5 mg/kg ip, systolic pressure (SAP), max change within one hour

T1 sequence (P14842 whole entry): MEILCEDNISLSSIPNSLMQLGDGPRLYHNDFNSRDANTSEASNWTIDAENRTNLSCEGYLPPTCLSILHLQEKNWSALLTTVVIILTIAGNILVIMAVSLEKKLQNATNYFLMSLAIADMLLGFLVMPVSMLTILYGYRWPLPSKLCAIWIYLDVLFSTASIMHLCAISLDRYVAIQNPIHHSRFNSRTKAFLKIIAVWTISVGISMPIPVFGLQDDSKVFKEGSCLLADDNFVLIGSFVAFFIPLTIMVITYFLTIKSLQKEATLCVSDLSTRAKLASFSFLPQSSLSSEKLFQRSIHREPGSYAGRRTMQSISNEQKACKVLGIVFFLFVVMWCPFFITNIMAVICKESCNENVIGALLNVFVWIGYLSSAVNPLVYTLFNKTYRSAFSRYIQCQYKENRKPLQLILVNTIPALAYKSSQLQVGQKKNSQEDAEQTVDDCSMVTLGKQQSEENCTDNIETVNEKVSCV

O=C1CCCN1CCN1CCN([C@@H]2C[C@@H](c3ccc(F)cc3)c3ccc(Cl)cc32)CC1 (relative stereo) [compound 21]
ED50 [1]: 11 µmol/kg
ED50 [2]: 0.079 µmol/kg
change in vivo at 5 mg/kg [3, 8]: -14%
change in vivo at 5 mg/kg [3, 9]: -11%
change in vivo at 0.02 mg/kg [4, 10]: -83%
change in vivo at […] [5]: 3%

O=C1NCCN1CCN1CCN([C@@H]2C[C@@H](c3ccc(F)cc3)c3ccc(Cl)cc32)CC1 (single isomer, unassigned) [+20, Trans-1-[3-(4-fluorophenyl)-6-chloroindan-1-yl]-4-[2-(2-imidazolidinon-1-yl)ethyl]piperazine, L(+)tartrate]
ED50 [1]: 49 µmol/kg
ED50 [2]: 0.028 µmol/kg
Antihypertensive eff. SHR, max eff. in % of 5 mg/kg ip, DAP [3, 11]: -45%
Antihypertensive eff. SHR, max eff. in % of 5 mg/kg ip, SAP [3, 12]: -29%
Effects on pressor response of 5-HT, % eff. of 0.02 mg/kg [4, 13]: -92%
Effects on pressor response of Phenylephrine, % eff. of […] ([5]; pithed rats, […], jugular vein): -34%

Fc1ccc([C@@H]2C[C@@H](N3CCN(CCN4CCCC4=S)CC3)c3cc(Cl)ccc32)cc1 (relative stereo) [compound 29, (±)Trans-1-[3-(4-fluorophenyl)-6-chlorindan-1-yl]-4-[2-(2-pyrrolidinthion-1-yl)ethyl]piperazine]
ED50 [2]: < 0.17 µmol/kg
change in vivo at 5 mg/kg [3, 8]: -4%
change in vivo at 5 mg/kg [3, 9]: -5%
change in vivo at 0.02 mg/kg [4, 10]: -88%
change in vivo at […] [5]: 8%

Fc1ccc([C@@H]2C[C@@H](N3CCN(CCN4CCNC4=S)CC3)c3cc(Cl)ccc32)cc1 (relative stereo) [compound 28]
ED50 [1]: 4.5 µmol/kg
ED50 [2]: 0.017 µmol/kg
change in vivo at 5 mg/kg [3, 8]: -10%
change in vivo at 5 mg/kg [3, 9]: -6%
change in vivo at 0.02 mg/kg [4, 10]: -93%
change in vivo at […] [5]: -22%

O=C1NCCN1CCN1CCN([C@@H]2C[C@@H](c3ccc(F)cc3)c3ccc(F)cc32)CC1 (single isomer, unassigned) [+2, (+)Trans-1-[3-(4-fluorophenyl)-6-fluoroindan-1-yl]-4-[2-(2-imidazolidinon-1-yl)ethyl]piperazine]
ED50 [1]: > 61 µmol/kg
1-5-HTP-antg. ED50 [6]: 0.10 µmol/kg
IC50 [7]: 4.3 nM
Antihypertensive eff. SHR, max eff. in % of 5 mg/kg ip, DAP [3, 11]: -40%
Antihypertensive eff. SHR, max eff. in % of 5 mg/kg ip, SAP [3, 12]: -31%
ED10 [3, 14]: 0.8 µmol/kg
ED10 [3, 15]: 1.6 µmol/kg
Effects on pressor response of 5-HT, ED50 ([4]; pithed rats, jugular vein): 0.010 µmol/kg
ED50 [5]: 1.43 µmol/kg
Phenylephr. antg./5-HT antg. (ratio) ([5]; pithed rats): 143

CN1CCN(CCN2CCN([C@@H]3C[C@@H](c4ccc(F)cc4)c4ccc(F)cc43)CC2)C1=O (single isomer, unassigned) [+3, (+)Trans-1-[3-(4-fluorophenyl)-6-fluoroindan-1-yl]-4-[2-(3-methyl-2-imidazolidinon-1-yl)ethyl]piperazine]
ED50 [1]: > 91 µmol/kg
1-5-HTP-antg. ED50 [6]: 0.023 µmol/kg
IC50 [7]: 1.1 nM
change in vivo at 5 mg/kg [3, 16]: -52%
change in vivo at 5 mg/kg [3, 17]: -38%
ED50 [4]: 0.004 µmol/kg
Effects on pressor response of 5-HT, % eff. of 0.02 mg/kg [4, 13]: -89%
ED50 [5]: 2.25 µmol/kg
Phenylephr. antg./5-HT antg. (ratio) ([5]; pithed rats): 563

O=C1OCCN1CCN1CCN([C@@H]2C[C@@H](c3ccc(F)cc3)c3ccc(Cl)cc32)CC1 (relative stereo) [compound 22]
ED50 [1]: 2.8 µmol/kg
ED50 [2]: 0.12 µmol/kg
change in vivo at 5 mg/kg [3, 8]: -21%
change in vivo at 5 mg/kg [3, 9]: -17%
change in vivo at 0.02 mg/kg [4, 10]: -77%
change in vivo at […] [5]: -5%

O=C1NCCN1CCN1CCN([C@@H]2C[C@@H](c3ccc(F)cc3)c3ccc(F)cc32)CC1 (relative stereo) [compound 2]
ED50 [1]: 79 µmol/kg
ED50 ([6]; Rattus norvegicus, sc, read-out: 1-5-HTP-antg. ED50): 0.13 µmol/kg
IC50 [7]: 6.7 nM
change in vivo at 5 mg/kg [3, 16]: -19%
change in vivo at 5 mg/kg [3, 17]: -14%
ED10 [3, 14]: 4.1 µmol/kg
ED10 [3, 15]: 9.2 µmol/kg
change in vivo at 0.02 mg/kg ([4]; read-out: Effects on pressor response of 5-HT, % eff. of 0.02 mg/kg, pithed rats, 0.02 mg/kg, jugular vein): -89%
ED50 [4]: 0.017 µmol/kg
ED50 [5]: 2.55 µmol/kg
Phenylephr. antg./5-HT antg. (ratio) ([5]; pithed rats): 150
